For one test, the target named is T1, human NPRA (Homo sapiens, UniProt P16066).
T1 construct: Full-Length cDNA Cloning and Generation of Cell Lines Overexpressing Natriuretic Peptide Receptors (NPRs); expressed in transfected cells; host or cells: Jump-in T-Rex HEK293 cells, pJTI R4 CMV-TO MCS pA vector, tetracycline induction
T1 sequence (P16066 33-1061): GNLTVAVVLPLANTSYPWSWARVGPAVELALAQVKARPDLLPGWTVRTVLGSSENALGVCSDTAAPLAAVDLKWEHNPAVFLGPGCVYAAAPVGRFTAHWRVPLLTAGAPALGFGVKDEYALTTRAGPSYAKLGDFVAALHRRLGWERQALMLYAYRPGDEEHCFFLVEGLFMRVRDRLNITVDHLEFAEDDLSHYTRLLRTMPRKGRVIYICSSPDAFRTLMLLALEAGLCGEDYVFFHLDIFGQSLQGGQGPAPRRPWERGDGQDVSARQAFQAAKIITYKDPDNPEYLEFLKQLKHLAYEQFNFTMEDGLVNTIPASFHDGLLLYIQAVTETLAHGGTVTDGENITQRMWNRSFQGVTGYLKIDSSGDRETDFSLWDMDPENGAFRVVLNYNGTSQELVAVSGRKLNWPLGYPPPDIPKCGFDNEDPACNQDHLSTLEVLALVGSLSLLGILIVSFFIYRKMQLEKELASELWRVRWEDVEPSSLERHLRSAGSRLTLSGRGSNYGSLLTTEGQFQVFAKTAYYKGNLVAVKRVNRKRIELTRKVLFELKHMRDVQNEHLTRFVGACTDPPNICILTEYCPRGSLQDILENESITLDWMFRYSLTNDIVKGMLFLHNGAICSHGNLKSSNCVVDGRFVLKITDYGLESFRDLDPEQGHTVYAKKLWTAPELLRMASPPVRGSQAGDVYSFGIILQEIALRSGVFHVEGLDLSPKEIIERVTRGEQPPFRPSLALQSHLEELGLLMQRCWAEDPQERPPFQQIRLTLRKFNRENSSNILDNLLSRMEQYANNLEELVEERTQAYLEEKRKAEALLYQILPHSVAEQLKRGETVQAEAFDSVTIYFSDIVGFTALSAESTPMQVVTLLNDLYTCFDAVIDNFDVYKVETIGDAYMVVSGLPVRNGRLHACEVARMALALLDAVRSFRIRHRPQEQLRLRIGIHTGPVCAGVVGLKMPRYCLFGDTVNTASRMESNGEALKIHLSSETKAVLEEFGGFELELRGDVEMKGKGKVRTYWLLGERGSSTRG
Put plainly: Human NPRA cGMP activity assay (HTRF) in HEK293 cells overexpressing NPRA. The note with it: assay buffer with 0.1% casein. Format: cell-based. The protocol:
All sequences were verified by full-length sequencing performed by ACGT DNA Sequencing Services (Wheeling, IL). The target cDNA was cloned into pJTI R4 CMV-TO MCS pA vector and then co-transfected with pJT1R4 Int vector into Jump-in™ T-Rex™ HEK293 cells for mammalian inducible expression using Jump-in™ T-Rex™ HEK293 kit and Lipofectamine LTX and Plus Reagent following manufacturer's protocols, as briefly described below.
Jump-in™ T-Rex™ HEK293 cells were plated in a BioCOAT® poly-D-lysine coated 6-well plate (Becton Dickinson, cat no. 354413) at 1 million cells/well in 2 mL culture medium and incubated for 18 h at 37° C. and 5% CO2 to 50-70% confluence. A cDNA mix was made in a 50 mL tube by adding 1.5 μg target cDNA, 1.5 μg pJT1R4 Int vector, 3 μL Plus Reagent, and 300 μL Opti-MEM I sequentially into the tube. A reagent mix was made in a separate 50 mL tube by adding 7.5 μL Lipofectamine LTX into 300 μL Opti-MEM I. The mixtures were incubated for 5 min at room temperature. The cDNA mix was then transferred into the reagent mix, mixed well, and incubated for additional 30 min at room temperature. A 500 μL of cDNA/Lipofectamine complex was then transferred to the wells of the cell plate in which the culture medium was changed to 2 mL of transfection medium containing DMEM with 4.5 g/L D-glucose supplemented with 10% FBS-HI and 20 mM HEPES. Transfected cells were cultured for 48 h in an incubator at 37° C. and 5% CO2. A subclone or pool from each overexpressing cell line was maintained in culture medium with the addition of 2 mg/mL G418 sulfate for the clone selection based on its built-in resistance to G418 sulfate for at least 3 weeks with medium changed every 2-3 days.
NPRs were overexpressed in T-Rex™ HEK293 cells following the induction with 300 ng/mL tetracycline in culture medium for 48 h. Induced cell lines in an exponential growth phase were treated with 0.05% trypsin-EDTA for a few seconds at room temperature, harvested in cell medium containing FBS to neutralize the trypsin, counted, and cryopreserved at the density of 2 million cells/mL in cell preservation solution containing FBS-HI with 5% DMSO. Cryopreserved cells were stored at −80° C. for a few days prior to transferring to a liquid nitrogen tank. Induced cell lines were then used for suspension assays to measure the activity of polypeptides to stimulate cGMP production in cGMP assays or for the preparation of cell membranes to measure the binding activity of polypeptides in competitive radioligand binding assays, as described below.
Test polypeptides were added starting at 10 μM concentration and at 10-fold decreasing concentrations to obtain 8-point concentration-response curves (i.e., 10 μM to 1 pM). The quantity of cGMP generated was detected using HTRF® technology and normalized to maximum amount produced by 100 nM amidated rat ANP and the minimum amount produced by assay buffer. Detailed steps are outlined below.
Stock solutions of test polypeptides (2 mM) dissolved in DMSO were first diluted 100-fold in assay buffer containing HBSS with Ca^2+ and Mg^2+, 5 mM HEPES, 0.5 mM IBMX, and 0.1% BSA or 0.1% casein (pH 7.4). The polypeptides were further serially diluted in 1:10 dilution steps in assay buffer containing 0.1% BSA or 0.1% casein to generate 8-point 2× working stock solutions ranging from 20 μM to […].
A 10 μL cell suspension containing 4000 cells was plated in Costar® half-area white opaque 96-well plates (Corning, cat no. 3693). Then 10 μL of assay buffer (basal activity), 200 nM of amidated rat ANP (maximum activity) or 2× working stock solutions of test polypeptides were transferred into the plate. Final concentration of DMSO in each well was 0.5%. The plate was shaken for 15 sec and then incubated for 40 min at room temperature.
The cGMP generated was measured using cGMP kit following the manufacturer's directions, as described below.
(In general: TR-FRET usually uses a lanthanide donor and a delayed reading to cut background.)

The target in a further test is T2, rat NPRA (Rattus norvegicus, UniProt P18910).
T2 construct: Full-Length cDNA Cloning and Generation of Cell Lines Overexpressing Natriuretic Peptide Receptors (NPRs); expressed in transfected cells; host or cells: Jump-in T-Rex HEK293 cells, pJTI R4 CMV-TO MCS pA vector, tetracycline induction
T2 sequence (P18910 29-1057): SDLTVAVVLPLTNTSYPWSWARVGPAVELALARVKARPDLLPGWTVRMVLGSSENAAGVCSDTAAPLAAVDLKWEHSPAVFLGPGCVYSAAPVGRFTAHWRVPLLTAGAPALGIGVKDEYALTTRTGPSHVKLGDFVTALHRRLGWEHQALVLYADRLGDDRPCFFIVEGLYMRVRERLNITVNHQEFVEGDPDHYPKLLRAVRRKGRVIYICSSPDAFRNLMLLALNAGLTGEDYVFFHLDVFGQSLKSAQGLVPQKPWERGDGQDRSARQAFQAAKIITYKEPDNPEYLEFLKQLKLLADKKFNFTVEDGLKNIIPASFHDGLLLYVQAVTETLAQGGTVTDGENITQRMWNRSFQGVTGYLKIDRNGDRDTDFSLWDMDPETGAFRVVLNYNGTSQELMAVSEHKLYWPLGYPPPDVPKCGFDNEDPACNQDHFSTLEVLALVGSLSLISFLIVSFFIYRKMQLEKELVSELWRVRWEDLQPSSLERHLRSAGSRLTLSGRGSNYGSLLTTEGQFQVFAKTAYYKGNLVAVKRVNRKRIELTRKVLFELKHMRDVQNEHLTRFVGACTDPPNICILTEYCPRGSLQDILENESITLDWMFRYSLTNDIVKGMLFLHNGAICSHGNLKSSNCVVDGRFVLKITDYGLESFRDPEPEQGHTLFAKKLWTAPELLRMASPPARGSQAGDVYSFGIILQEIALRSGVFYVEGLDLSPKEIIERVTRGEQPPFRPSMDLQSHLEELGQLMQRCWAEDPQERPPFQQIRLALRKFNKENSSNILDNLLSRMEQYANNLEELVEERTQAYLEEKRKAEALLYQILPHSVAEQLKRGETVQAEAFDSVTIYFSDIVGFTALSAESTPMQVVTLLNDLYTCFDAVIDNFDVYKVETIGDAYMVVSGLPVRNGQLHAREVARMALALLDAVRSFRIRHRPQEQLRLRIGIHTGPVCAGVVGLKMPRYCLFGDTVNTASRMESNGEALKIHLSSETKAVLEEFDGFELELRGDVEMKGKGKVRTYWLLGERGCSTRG
In words: Rat NPRA cGMP activity assay (HTRF) in HEK293 cells overexpressing NPRA. Format: cell-based. The settings on record: assay buffer with 0.1% casein. The gist of the method:
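cGMP measured by HTRF and scaled between buffer (minimum) and 100 nM amidated rat ANP (maximum). Polypeptides in 10-fold steps from 10 μM to 1 pM, 0.5% DMSO, 0.5 mM IBMX, 40 min at room temperature, on induced NPRA-overexpressing HEK293 cells.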

[1] abbreviates: read-out: cGMP Assay (EC50, pM) w/Casein hNPRA.
[2] abbreviates: read-out: cGMP Assay (EC50, pM) w/Casein rNPRA.

Like-named read-outs stand apart in the source and are kept apart here. Numbered stars: 1 amine (or outer) side, 2 acyl side, 3 side chain; on linkers, the order of the positions; unused ones are H or OH. Bridge positions count the residues as written; N and C are the ends. Square brackets hold non-standard residues; d marks the D form. Peptide text beside a SMILES is read from it. * marks the point of attachment. C20 diacid = O=C(O)CCCCCCCCCCCCCCCCCCC(=O)*; γGlu = O=C(O)[C@H](CCC(=O)[*:2])N[*:1]; 4Pal = N[C@@H](Cc1ccncc1)C(=O)O; Dap = NC[C@H](N)C(=O)O; AEEA = NCCOCCOCC(=O)O; CH2 = C([*:1])[*:2]; βAla = NCCC(=O)O

On to `CC[C@H](C)[C@@H]1NC(=O)[C@H](CCCNC(=N)N)NC(=O)[C@H](CC(=O)O)NC(=O)[C@H]([C@@H](C)CC)NC(=O)[C@H](CCCNC(=N)N)NC(=O)CNC(=O)CNC(=O)[C@H](Cc2ccccc2)NC(=O)[C@@H](NC(=O)[C@H](CO)NC(=O)[C@H](CO)NC(=O)[C@H](CCCNC(=N)N)NC(=O)[C@H](CCCNC(=N)N)NC(=O)[C@H](Cc2ccncc2)NC(=O)[C@H](CO)NC(=O)COCCOCCNC(=O)COCCOCCNC(=O)COCCOCCNC(=O)COCCOCCNC(=O)COCCOCCNC(=O)COCCOCCNC(=O)CNC(=O)[C@H](CCCCN)NC(=O)[C@H](CCC(=O)O)NC(=O)[C@H](CCCCN)NC(=O)[C@H](CCC(=O)O)NC(=O)[C@H](CCCCN)NC(=O)[C@H](CCC(=O)O)NC(=O)CC[C@H](NC(=O)CCCCCCCCCCCCCCCCCCC(=O)O)C(=O)O)CSCSC[C@@H](C(=O)N2CCC[C@H]2C(=O)N[C@@H](CO)C(=O)N[C@@H](Cc2ccccc2)C(=O)N[C@@H](CCCNC(=N)N)C(=O)N[C@@H](Cc2c[nH]cn2)C(=O)NCC(=O)N[C@@H](CO)C(=O)N2CCC[C@H]2C(=O)N[C@@H](CO)C(=O)N[C@@H](CO)C(=O)NCC(=O)N[C@@H](C)C(=O)N2CCC[C@H]2C(=O)N2CCC[C@H]2C(=O)N2CCC[C@H]2C(=O)N[C@@H](CO)C(N)=O)NC(=O)CNC(=O)[C@H](CC(C)C)NC(=O)CNC(=O)[C@H](CO)NC(=O)[C@H](Cc2ccc(O)cc2)NC(=O)[C@H](Cc2c[nH]cn2)NC(=O)CNC1=O` [Example 96], for which the EC50 came out at 720 pM at human NPRA (cGMP Assay (EC50, pM) w/Casein hNPRA) and 12200 pM at rat NPRA (cGMP Assay (EC50, pM) w/Casein rNPRA).
For “{C20 diacid-γGlu}-EKEKEKG[AEEA][AEEA][AEEA][AEEA][AEEA][AEEA]EK[βAla]RSSCFGKRIDRIGHQSGLGCPSFRHGSPSSGAPPPS-NH2 (linker 20-36 via CH2) [Example 119]”, the EC50 at human NPRA (setting [1]) was found to be 493 pM; on rat NPRA (setting [2]), 17900 pM.
The matching figures for “{C20 diacid-γGlu}-EKEKEKGEKPRSSCFGG[Dap]IDRIGHQSGLGCPSFRHGSPSSGAPPPS-NH2 (linker 14-30 via CH2) [Example 139]”: 19700 pM and 200000 pM.
For the molecule `CC[C@H](C)[C@@H]1NC(=O)[C@H](CCCNC(=N)N)NC(=O)[C@H](CC(=O)O)NC(=O)[C@H]([C@@H](C)CC)NC(=O)[C@H](CCCNC(=N)N)NC(=O)CNC(=O)CNC(=O)[C@H](Cc2ccccc2)NC(=O)[C@@H](NC(=O)[C@H](CO)NC(=O)[C@H](CO)NC(=O)[C@H](CCCNC(=N)N)NC(=O)[C@H](CCCNC(=N)N)NC(=O)[C@H](Cc2ccncc2)NC(=O)[C@H](CO)NC(=O)CNC(=O)[C@H](CCCCN)NC(=O)[C@H](CCC(=O)O)NC(=O)[C@H](CCCCN)NC(=O)[C@H](CCC(=O)O)NC(=O)[C@H](CCCCN)NC(=O)[C@H](CCC(=O)O)NC(=O)CC[C@H](NC(=O)CCCCCCCCCCCCCCCCCCC(=O)O)C(=O)O)CSSC[C@@H](C(=O)N[C@@H](CC(N)=O)C(=O)N[C@@H](CO)C(=O)N[C@@H](Cc2ccccc2)C(=O)N[C@@H](CCCNC(=N)N)C(=O)N[C@@H](Cc2ccncc2)C(N)=O)NC(=O)CNC(=O)[C@H](CC(C)C)NC(=O)CNC(=O)[C@H](CO)NC(=O)[C@H](CCC(N)=O)NC(=O)[C@H](C)NC(=O)CNC1=O` [Example 15] ({C20 diacid-γGlu}-EKEKEKGS[4Pal]RRSSCFGGRIDRIGAQSGLGCNSFR[4Pal]-NH2; disulfide 14-30), the EC50 on human NPRA (setting [1]) worked out at 912 pM.

Values taken from patent US20240174727A1, “LONG-ACTING NATRIURETIC PEPTIDES AND USES THEREOF” (Eli Lilly and Company, priority 2022, published 2024).
